Measured values as given in ChEMBL document CHEMBL1201862, “PubChem BioAssay data set” (2004).
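Each compound was tested at five concentrations against cells in 96-well plates for 48 hours. Abbreviation: GI50, concentration required for 50% inhibition of growth.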 Calls of active or inactive are those of the source. Rule as the data show it: active = GI50 up to about 1.1 µM and inactive = higher.

Tests used:
Assay in all cases: NCI-60 cell line screen, 48 h
[1] = tested on: SK-MEL-5
[2] = tested on: DU-145
[3] = tested on: M14
[4] = tested on: TK-10
[5] = tested on: HOP-62
[6] = tested on: RXF 393
[7] = tested on: MOLT-4
[8] = tested on: ACHN
[9] = tested on: A549
[10] = tested on: HCT-116
[11] = tested on: PC-3
[12] = tested on: A498
[13] = tested on: EKVX
[14] = tested on: T47D
[15] = tested on: SN12C
[16] = tested on: NCI-H226
[17] = tested on: OVCAR-3
[18] = tested on: NCI/ADR-RES
[19] = tested on: HCT-15
[20] = tested on: MCF7
[21] = tested on: OVCAR-5
[22] = tested on: SF-268
[23] = tested on: 786-0
[24] = tested on: SF-295
[25] = tested on: U-251
[26] = tested on: SK-OV-3
[27] = tested on: NCI-H522
[28] = tested on: MDA-MB-231
[29] = tested on: IGROV-1
[30] = tested on: UACC-257
[31] = tested on: OVCAR-4
[32] = tested on: K562
[33] = tested on: SR
[34] = tested on: HCC 2998
[35] = tested on: MDA-MB-435
[36] = tested on: CAKI-1
[37] = tested on: SK-MEL-28
[38] = tested on: HT-29
[39] = tested on: Hs-578T
[40] = tested on: KM12
[41] = tested on: CCRF-CEM
[42] = tested on: Malme-3M
[43] = tested on: SK-MEL-2
[44] = tested on: OVCAR-8
[45] = tested on: MDA-N
[46] = tested on: RPMI-8226
[47] = tested on: BT-549
[48] = tested on: SNB-19
[49] = tested on: SNB-75
[50] = tested on: SW-620
[51] = tested on: LOX IMVI
[52] = tested on: UACC-62
[53] = tested on: COLO 205
[54] = tested on: NCI-H460
[55] = tested on: UO-31
[56] = tested on: HL-60
[57] = tested on: NCI-H23

## O=C1c2cc(Cl)ccc2-n2c(noc2=O)C2CSCN12 (stereo not given)
[1]
  GI50: > 100 µM (inactive)
[2]
  GI50: > 100 µM (inactive)
[3]
  GI50: > 100 µM (inactive)
[4]
  GI50: > 100 µM (inactive)
[5]
  GI50: > 100 µM (inactive)
[6]
  GI50: > 100 µM (inactive)
[7]
  GI50: > 100 µM (inactive)
[8]
  GI50: > 100 µM (inactive)
[9]
  GI50: > 100 µM (inactive)
[10]
  GI50: > 100 µM (inactive)
[11]
  GI50: > 100 µM (inactive)
[12]
  GI50: > 100 µM (inactive)
[13]
  GI50: > 100 µM (inactive)
[14]
  GI50: > 100 µM (inactive)
[15]
  GI50: > 100 µM (inactive)
[16]
  GI50: > 100 µM (inactive)
[17]
  GI50: > 100 µM (inactive)
[18]
  GI50: > 100 µM (inactive)
[19]
  GI50: > 100 µM
[20]
  GI50: > 100 µM (inactive)
[21]
  GI50: > 100 µM (inactive)
[22]
  GI50: > 100 µM (inactive)
[23]
  GI50: > 100 µM (inactive)
[24]
  GI50: > 100 µM (inactive)
[25]
  GI50: > 100 µM (inactive)
[26]
  GI50: > 100 µM (inactive)
[27]
  GI50: > 100 µM (inactive)
[28]
  GI50: > 100 µM (inactive)
[29]
  GI50: > 100 µM (inactive)
[30]
  GI50: > 100 µM (inactive)
[31]
  GI50: > 100 µM (inactive)
[32]
  GI50: 55.7 µM (inactive)
[33]
  GI50: > 100 µM (inactive)
[34]
  GI50: > 100 µM (inactive)
[35]
  GI50: > 100 µM (inactive)
[36]
  GI50: > 100 µM (inactive)
[37]
  GI50: > 100 µM (inactive)
[38]
  GI50: > 100 µM (inactive)
[39]
  GI50: > 100 µM (inactive)
[40]
  GI50: > 100 µM (inactive)
[41]
  GI50: > 100 µM (inactive)
[42]
  GI50: > 100 µM (inactive)
[43]
  GI50: > 100 µM (inactive)
[44]
  GI50: > 100 µM (inactive)
[45]
  GI50: > 100 µM (inactive)
[46]
  GI50: > 100 µM (inactive)
[47]
  GI50: > 100 µM (inactive)
[48]
  GI50: > 100 µM (inactive)
[49]
  GI50: > 100 µM (inactive)
[50]
  GI50: > 100 µM (inactive)
[51]
  GI50: > 100 µM (inactive)
[52]
  GI50: > 100 µM (inactive)
[53]
  GI50: > 100 µM (inactive)
[54]
  GI50: > 100 µM (inactive)
[55]
  GI50: > 100 µM (inactive)

## COc1cc(OC)nc(-n2c(N)c(C(=O)O)c3ccc([N+](=O)[O-])cc3c2=O)n1
[1]
  GI50: > 100 µM (inactive)
[2]
  GI50: > 100 µM (inactive)
[3]
  GI50: > 100 µM (inactive)
[5]
  GI50: > 100 µM (inactive)
[6]
  GI50: > 100 µM (inactive)
[7]
  GI50: > 100 µM (inactive)
[8]
  GI50: > 100 µM (inactive)
[9]
  GI50: > 100 µM (inactive)
[10]
  GI50: > 100 µM (inactive)
[11]
  GI50: > 100 µM (inactive)
[12]
  GI50: > 100 µM (inactive)
[13]
  GI50: > 100 µM (inactive)
[14]
  GI50: > 100 µM (inactive)
[15]
  GI50: > 100 µM (inactive)
[16]
  GI50: > 100 µM (inactive)
[17]
  GI50: > 100 µM (inactive)
[18]
  GI50: > 100 µM (inactive)
[19]
  GI50: > 100 µM
[20]
  GI50: > 100 µM (inactive)
[21]
  GI50: > 100 µM (inactive)
[22]
  GI50: > 100 µM (inactive)
[23]
  GI50: > 100 µM (inactive)
[56]
  GI50: 60.5 µM (inactive)
[24]
  GI50: > 100 µM (inactive)
[25]
  GI50: > 100 µM (inactive)
[26]
  GI50: > 100 µM (inactive)
[27]
  GI50: > 100 µM (inactive)
[28]
  GI50: > 100 µM (inactive)
[29]
  GI50: 67.8 µM (inactive)
[31]
  GI50: > 100 µM (inactive)
[32]
  GI50: > 100 µM (inactive)
[33]
  GI50: > 100 µM (inactive)
[34]
  GI50: > 100 µM (inactive)
[35]
  GI50: > 100 µM (inactive)
[36]
  GI50: > 100 µM (inactive)
[37]
  GI50: 97.7 µM (inactive)
[38]
  GI50: > 100 µM (inactive)
[39]
  GI50: > 100 µM (inactive)
[40]
  GI50: > 100 µM (inactive)
[41]
  GI50: 63.1 µM (inactive)
[42]
  GI50: > 100 µM (inactive)
[43]
  GI50: > 100 µM (inactive)
[44]
  GI50: > 100 µM (inactive)
[45]
  GI50: > 100 µM (inactive)
[46]
  GI50: > 100 µM (inactive)
[47]
  GI50: > 100 µM (inactive)
[48]
  GI50: > 100 µM (inactive)
[49]
  GI50: > 100 µM (inactive)
[50]
  GI50: 88.1 µM (inactive)
[57]
  GI50: > 100 µM (inactive)
[51]
  GI50: > 100 µM (inactive)
[52]
  GI50: > 100 µM (inactive)
[53]
  GI50: > 100 µM (inactive)
[54]
  GI50: > 100 µM (inactive)
[55]
  GI50: 71.1 µM (inactive)
